Each block holds one compound with its values, some of them ahead of it.
Target: human PAD4 (hPAD4) (Homo sapiens (Human), UniProt Q9UM07)
Test: RFMS Human PAD4 Functional Assay 1
Assay type: biochemical
Settings: RFMS assay 1; 5 nM hPAD4, 250 μM BAEE substrate, 50 μM calcium, 37° C.
How it was run: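 Recombinant hPAD4 (5 nM) was preincubated with compound (top 50 μM, 0.5% DMSO) for 30 min at 37 °C, then reacted with 250 μM BAEE for 90 min at 37 °C in pH 7.5 HEPES buffer with 50 μM calcium and 5 μM TPEN. Product was derivatized with phenyl glyoxal and quantified by RapidFire MS.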

Chain of human PAD4 (hPAD4) (Q9UM07 whole entry): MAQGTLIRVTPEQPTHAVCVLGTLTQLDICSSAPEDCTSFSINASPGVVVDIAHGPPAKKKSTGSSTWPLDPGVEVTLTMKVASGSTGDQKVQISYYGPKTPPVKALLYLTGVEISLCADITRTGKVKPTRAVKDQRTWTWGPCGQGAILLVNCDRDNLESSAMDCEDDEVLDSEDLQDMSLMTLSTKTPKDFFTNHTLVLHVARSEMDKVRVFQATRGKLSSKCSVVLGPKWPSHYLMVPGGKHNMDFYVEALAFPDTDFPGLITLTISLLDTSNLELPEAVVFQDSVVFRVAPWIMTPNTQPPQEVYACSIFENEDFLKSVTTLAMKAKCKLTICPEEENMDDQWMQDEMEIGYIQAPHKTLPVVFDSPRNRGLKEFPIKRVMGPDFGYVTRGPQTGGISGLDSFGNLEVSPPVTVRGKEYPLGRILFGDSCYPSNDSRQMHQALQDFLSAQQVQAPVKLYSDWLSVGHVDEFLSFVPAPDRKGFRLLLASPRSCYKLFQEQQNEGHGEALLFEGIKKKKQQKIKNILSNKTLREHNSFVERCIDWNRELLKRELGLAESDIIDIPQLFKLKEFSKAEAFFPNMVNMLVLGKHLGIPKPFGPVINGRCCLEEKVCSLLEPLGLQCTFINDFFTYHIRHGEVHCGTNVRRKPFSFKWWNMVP

- IC50: 0.181 µM
Structure (SMILES): Cc1c(-c2cc3ccc(-c4cccc(O)c4F)nc3n2CC2CC2)oc2cc(C(=O)N3CC4CCC3[C@@H]4N)ccc12 (stereo partly drawn) [Example 169, ((7R)-7-Amino-2-azabicyclo[2.2.1]heptan-2-yl)(2-(1-(cyclopropylmethyl)-6-(2-fluoro-3-hydroxyphenyl)-1H-pyrrolo[2,3-b]pyridin-2-yl)-3-methylbenzofuran-6-yl)methanone]

- IC50: 0.076 µM
Structure (SMILES): Cc1ccc2cc(-c3oc4cc(C(=O)N5CC6CCC5[C@@H]6N)ccc4c3C)n(CC3CC3)c2n1 (stereo partly drawn) [Example 171, ((7R)-7-Amino-2-azabicyclo[2.2.1]heptan-2-yl)(2-(1-(cyclopropylmethyl)-6-methyl-1H-pyrrolo[2,3-b]pyridin-2-yl)-3-methylbenzofuran-6-yl)methanone]

- IC50: 0.229 µM
Structure (SMILES): Cc1c(-c2cc3ccccc3n2CC2CC2)oc2cc(C(=O)N3CC4CCC3[C@@H]4N)ccc12 (stereo partly drawn) [Example 176, ((7R)-7-Amino-2-azabicyclo[2.2.1]heptan-2-yl)(2-(1-(cyclopropylmethyl)-1H-indol-2-yl)-3-methylbenzofuran-6-yl)methanone]

- IC50: 0.22 µM
Structure (SMILES): Cc1c(-c2cc3ccc(-c4cnn(C(C)C)c4)cc3n2CC2CC2)oc2cc(C(=O)N3CC4CCC3[C@@H]4N)ccc12 (stereo partly drawn) [Example 180, ((7R)-7-Amino-2-azabicyclo[2.2.1]heptan-2-yl)(2-(1-(cyclopropylmethyl)-6-(1-isopropyl-1H-pyrazol-4-yl)-1H-indol-2-yl)-3-methylbenzofuran-6-yl)methanone]

- IC50: 0.269 µM
Structure (SMILES): Cc1c(-c2cc3ccc(-c4cccc(O)c4F)cc3n2CC2CC2)oc2cc(C(=O)N3CC4CCC3[C@@H]4N)ccc12 (stereo partly drawn) [Example 181, ((7R)-7-Amino-2-azabicyclo[2.2.1]heptan-2-yl)(2-(1-(cyclopropylmethyl)-6-(2-fluoro-3-hydroxyphenyl)-1H-indol-2-yl)-3-methylbenzofuran-6-yl)methanone]

- IC50: 0.923 µM
Structure (SMILES): Cc1c(-c2cc3ccc(-c4ccc(O)c(F)c4)cc3n2CC2CC2)oc2cc(C(=O)N3CC4CCC3[C@@H]4N)ccc12 (stereo partly drawn) [Example 182, ((7R)-7-Amino-2-azabicyclo[2.2.1]heptan-2-yl)(2-(1-(cyclopropylmethyl)-6-(3-fluoro-4-hydroxyphenyl)-1H-indol-2-yl)-3-methylbenzofuran-6-yl)methanone]

- IC50: 0.088 µM
Structure (SMILES): Cc1c(-c2cc3ccc(-c4ccc(C(N)=O)c(Cl)c4)cc3n2CC2CC2)oc2cc(C(=O)N3CC4CCC3[C@@H]4N)ccc12 (stereo partly drawn) [Example 183, 4-(2-(6-((7R)-7-Amino-2-azabicyclo[2.2.1]heptane-2-carbonyl)-3-methylbenzofuran-2-yl)-1-(cyclopropylmethyl)-1H-indol-6-yl)-2-chlorobenzamide]

- IC50: 0.05 µM
Structure (SMILES): Cc1ccc2cc(-c3oc4cc(C(=O)N5CC6CCC5[C@@H]6N)ccc4c3C)n(CC3CC3)c2c1 (stereo partly drawn) [Example 184, ((7R)-7-Amino-2-azabicyclo[2.2.1]heptan-2-yl)(2-(1-(cyclopropylmethyl)-6-methyl-1H-indol-2-yl)-3-methylbenzofuran-6-yl)methanone]

- IC50: 0.025 µM
Structure (SMILES): Cc1c(-c2cc3ccc(-c4ccc(C(N)=O)c(F)c4)cc3n2CC2CC2)oc2cc(C(=O)N3CC4CCC3[C@@H]4N)ccc12 (stereo partly drawn) [Example 185, 4-(2-(6-((7R)-7-Amino-2-azabicyclo[2.2.1]heptane-2-carbonyl)-3-methylbenzofuran-2-yl)-1-(cyclopropylmethyl)-1H-indol-6-yl)-2-fluorobenzamide]

- IC50: 0.056 µM
Structure (SMILES): COc1cc(-c2ccc3cc(-c4oc5cc(C(=O)N6CC7CCC6[C@@H]7N)ccc5c4C)n(CC4CC4)c3c2)ccn1 (stereo partly drawn) [Example 186, ((7R)-7-Amino-2-azabicyclo[2.2.1]heptan-2-yl)(2-(1-(cyclopropylmethyl)-6-(2-methoxypyridin-4-yl)-1H-indol-2-yl)-3-methylbenzofuran-6-yl)methanone]

The remaining lines, values behind:

Structure (SMILES): Cc1c(-c2cc3ccc(-c4ccc5c(c4)CNC5=O)nc3n2CC2CC2)oc2cc(C(=O)N3CC4CCC3[C@@H]4N)ccc12 (stereo partly drawn) [Example 168, 5-(2-(6-((7R)-7-Amino-2-azabicyclo[2.2.1]heptane-2-carbonyl)-3-methylbenzofuran-2-yl)-1-(cyclopropylmethyl)-1H-pyrrolo[2,3-b]pyridin-6-yl)isoindolin-1-one]
- IC50: 0.047 µM

Structure (SMILES): Cc1c(-c2cc3ccc(-c4ccc(C(N)=O)c(F)c4)nc3n2CC2CC2)oc2cc(C(=O)N3CC4CCC3[C@@H]4N)ccc12 (stereo partly drawn) [Example 170, 4-(2-(6-((7R)-7-amino-2-azabicyclo[2.2.1]heptane-2-carbonyl)-3-methylbenzofuran-2-yl)-1-(cyclopropylmethyl)-1H-pyrrolo[2,3-b]pyridin-6-yl)-2-fluorobenzamide]
- IC50: 0.135 µM

Structure (SMILES): COc1cc(-c2ccc3cc(-c4oc5cc(C(=O)N6CC7CCC6[C@@H]7N)ccc5c4C)n(CC4CC4)c3n2)ccn1 (stereo partly drawn) [Example 172, ((7R)-7-Amino-2-azabicyclo[2.2.1]heptan-2-yl)(2-(1-(cyclopropylmethyl)-6-(2-methoxypyridin-4-yl)-1H-pyrrolo[2,3-b]pyridin-2-yl)-3-methylbenzofuran-6-yl)methanone]
- IC50: 8.77 µM

Structure (SMILES): COC1CN(c2ccc3cc(-c4oc5cc(C(=O)N6CC7CCC6[C@@H]7N)ccc5c4C)n(CC4CC4)c3n2)C1 (stereo partly drawn) [Example 173, ((7R)-7-Amino-2-azabicyclo[2.2.1]heptan-2-yl)(2-(1-(cyclopropylmethyl)-6-(3-methoxyazetidin-1-yl)-1H-pyrrolo[2,3-b]pyridin-2-yl)-3-methylbenzofuran-6-yl)methanone]
- IC50: 0.09 µM

Structure (SMILES): Cc1c(-c2cc3cccnc3n2CC2CC2)oc2cc(C(=O)N3C[C@H](N)C[C@@H](F)C3)ccc12 [Example 174, ((3R,5R)-3-Amino-5-fluoropiperidin-1-yl)(2-(1-(cyclopropylmethyl)-1H-pyrrolo[2,3-b]pyridin-2-yl)-3-methylbenzofuran-6-yl)methanone]
- IC50: 0.204 µM

Structure (SMILES): Cc1c(-c2cc3ccc(-c4ccc5c(c4)C(=O)NC5)nc3n2CC2CC2)oc2cc(C(=O)N3C[C@H](N)C[C@@H](F)C3)ccc12 [Example 175, 6-(2-(6-((3R,5R)-3-Amino-5-fluoropiperidine-1-carbonyl)-3-methylbenzofuran-2-yl)-1-(cyclopropylmethyl)-1H-pyrrolo[2,3-b]pyridin-6-yl)isoindolin-1-one]
- IC50: 0.83 µM

Structure (SMILES): Cc1c(-c2cc3ccc(-c4ccc5c(c4)C(=O)NC5)cc3n2CC2CC2)oc2cc(C(=O)N3CC4CCC3[C@@H]4N)ccc12 (stereo partly drawn) [Example 177, 6-(2-(6-((7R)-7-Amino-2-azabicyclo[2.2.1]heptane-2-carbonyl)-3-methylbenzofuran-2-yl)-1-(cyclopropylmethyl)-1H-indol-6-yl)isoindolin-1-one]
- IC50: 0.069 µM

Structure (SMILES): Cc1c(-c2cc3ccc(-c4ccc5c(c4)CNC5=O)cc3n2CC2CC2)oc2cc(C(=O)N3CC4CCC3[C@@H]4N)ccc12 (stereo partly drawn) [Example 178, 5-(2-(6-((7R)-7-Amino-2-azabicyclo[2.2.1]heptane-2-carbonyl)-3-methylbenzofuran-2-yl)-1-(cyclopropylmethyl)-1H-indol-6-yl)isoindolin-1-one]
- IC50: 0.153 µM

Structure (SMILES): Cc1c(-c2cc3ccc(-c4ccn5c(C)nnc5c4)cc3n2CC2CC2)oc2cc(C(=O)N3CC4CCC3[C@@H]4N)ccc12 (stereo partly drawn) [Example 179, ((7R)-7-Amino-2-azabicyclo[2.2.1]heptan-2-yl)(2-(1-(cyclopropylmethyl)-6-(3-methyl-[1,2,4]triazolo[4,3-a]pyridin-7-yl)-1H-indol-2-yl)-3-methylbenzofuran-6-yl)methanone]
- IC50: 0.035 µM
